From patent US20230263825A1, “ANTI-CANCER ACTIVITY OF PERBORATE SALTS” (priority 2020, published 2023)

Assay: Toxicology in rats, oral, histopathology
Format: in vivo
Conditions: rat, in vivo, po
Description: After 32 days, the rats were sacrificed and their organs were examined under a microscope.

## O.O.O.O.[Na+].[O-]B1OO1 [sodium perborate tetrahydrate]
1 mg/kg
  LIVER Within normal limits, %: 100%
  LIVER Within normal limits, No Exam: 10/10
  LUNG Lymphocytic infiltration, %: 0%
  LUNG Lymphocytic infiltration, No Exam: 0/10
  LUNG Notable or abnormal, %: 0%
  LUNG Notable or abnormal, No Exam: 0/10
  LUNG Pulmonary edema, %: 0%
  LUNG Pulmonary edema, No Exam: 0/10
  LUNG Within normal limits, %: 100%
  LUNG Within normal limits, No Exam: 10/10
  PANCREAS Notable or abnormal, %: 0%
  PANCREAS Notable or abnormal, No Exam: 0/10
  PANCREAS Within normal limits, %: 100%
  PANCREAS Within normal limits, No Exam: 10/10
  SPLEEN Notable or abnormal, %: 0%
  SPLEEN Notable or abnormal, No Exam: 0/10
  SPLEEN Within normal limits, %: 100%
  SPLEEN Within normal limits, No Exam: 10/10
  STOMACH Notable or abnormal, %: 0%
  STOMACH Notable or abnormal, No Exam: 0/10
  STOMACH Within normal limits, %: 100%
  STOMACH Within normal limits, No Exam: 10/10
2 mg/kg
  HEART Notable or abnormal, %: 0%
  HEART Notable or abnormal, No Exam: 0/10
  HEART Within normal limits, %: 100%
  HEART Within normal limits, No Exam: 10/10
  INTESTINE, Large Notable or abnormal, %: 0%
  INTESTINE, Large Notable or abnormal, No Exam: 0/10
  INTESTINE, Large Within normal limits, %: 100%
  INTESTINE, Large Within normal limits, No Exam: 10/10
  INTESTINE, Small Notable or abnormal, %: 0%
  INTESTINE, Small Notable or abnormal, No Exam: 0/10
  INTESTINE, Small Within normal limits, %: 100%
  INTESTINE, Small Within normal limits, No Exam: 10/10
  KIDNEY Edema, %: 0%
  KIDNEY Edema, No Exam: 0/10
  KIDNEY Notable or abnormal, %: 0%
  KIDNEY Notable or abnormal, No Exam: 0/10
  KIDNEY Within normal limits, %: 100%
  KIDNEY Within normal limits, No Exam: 10/10
  LIVER Fattening, %: 0%
  LIVER Fattening, No Exam: 0/10
  LIVER Infiltration, %: 0%
  LIVER Infiltration, No Exam: 0/10
  LIVER Notable or abnormal, %: 0%
  LIVER Notable or abnormal, No Exam: 0/10
  LIVER Within normal limits, %: 100%
  LIVER Within normal limits, No Exam: 10/10
  LUNG Lymphocytic infiltration, %: 0%
  LUNG Lymphocytic infiltration, No Exam: 0/10
  LUNG Notable or abnormal, %: 0%
  LUNG Notable or abnormal, No Exam: 0/10
  LUNG Pulmonary edema, %: 0%
  LUNG Pulmonary edema, No Exam: 0/10
  LUNG Within normal limits, %: 100%
  LUNG Within normal limits, No Exam: 10/10
  PANCREAS Notable or abnormal, %: 0%
  PANCREAS Notable or abnormal, No Exam: 0/10
  PANCREAS Within normal limits, %: 100%
  PANCREAS Within normal limits, No Exam: 10/10
  SPLEEN Notable or abnormal, %: 0%
  SPLEEN Notable or abnormal, No Exam: 0/10
  SPLEEN Within normal limits, %: 100%
  SPLEEN Within normal limits, No Exam: 10/10
  STOMACH Notable or abnormal, %: 0%
  STOMACH Notable or abnormal, No Exam: 0/10
  STOMACH Within normal limits, %: 100%
  STOMACH Within normal limits, No Exam: 10/10
4 mg/kg
  HEART Notable or abnormal, %: 0%
  HEART Notable or abnormal, No Exam: 0/10
  HEART Within normal limits, %: 100%
  HEART Within normal limits, No Exam: 10/10
  INTESTINE, Large Notable or abnormal, %: 0%
  INTESTINE, Large Notable or abnormal, No Exam: 0/10
  INTESTINE, Large Within normal limits, %: 100%
  INTESTINE, Large Within normal limits, No Exam: 10/10
  INTESTINE, Small Notable or abnormal, %: 0%
  INTESTINE, Small Notable or abnormal, No Exam: 0/10
  INTESTINE, Small Within normal limits, %: 100%
  INTESTINE, Small Within normal limits, No Exam: 10/10
  KIDNEY Edema, %: 0%
